We go through two compounds from PMC9457941, “Synthesis and Kinase Inhibitory Potencies of Pyrazolo[3,4-g]isoquinolines” (Molecules, 2022).

The target of the first assay is T1, Pim-1 (Homo sapiens, UniProt P11309).
T1 construct: host or cells: bacteria
T1 sequence (P11309 whole entry): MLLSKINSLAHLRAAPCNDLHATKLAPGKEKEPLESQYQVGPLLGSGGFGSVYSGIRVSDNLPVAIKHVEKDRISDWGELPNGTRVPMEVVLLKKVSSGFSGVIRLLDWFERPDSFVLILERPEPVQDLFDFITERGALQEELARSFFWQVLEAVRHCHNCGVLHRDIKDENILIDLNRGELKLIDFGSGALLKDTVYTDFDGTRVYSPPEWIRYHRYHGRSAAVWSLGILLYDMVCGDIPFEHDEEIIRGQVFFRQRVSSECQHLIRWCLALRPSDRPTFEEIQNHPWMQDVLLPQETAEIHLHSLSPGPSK
Description: ADP-Glo kinase inhibition assay, Pim-1. It is filed as biochemical. The following applies: 1 μM compound, 10 μM ATP, duplicate; read-out: PIM1 % residual activity at 1 μM. As to the method:
(§1) Kinase enzymatic activities were assayed in 384 well plates using the ADP-GloTM assay kit (Promega, Madison, WI, USA) according to the manufacturer’s guidance. Briefly, the reactions were carried out in a final volume of 6 μL for 30 min at 30 °C in an appropriate kinase buffer (10 mM MgCl2, 1 mM EGTA, 1 mM DTT, 25 mM Tris-HCl pH 7.5, 50 μg/mL heparin), with either protein or peptide as substrate in the presence of 10 μM ATP (40 mM Tris pH 7.5, 20 mM MgCl2 and 0.1 mg/mL of BSA). Afterward, 6 μL of ADP-GloTM Kinase Reagent was added to stop the kinase reaction. After an incubation time of 50 min at room temperature (RT), 12 μL of Kinase Detection Reagent was added for 1 h at RT. The transmitted signal was measured using the Envision (Perkin Elmer, Waltham, MA, USA) microplate luminometer and expressed in relative light unit (RLU). In order to determine the half maximal inhibitory concentration (IC50), the assays were performed in duplicate in the absence or presence of increasing doses of the tested compounds. GraphPad Prism6 software (GraphPad Software, San Diego, CA, USA) was used to fit dose–response curves and to determine the IC50 values. Kinase activities are expressed in the percentage of maximal activity, i.e., measured in the absence of an inhibitor. Peptide substrates were obtained from Proteogenix (Schiltigheim, France).
(§2) The following protein kinases were analyzed in this study: CDK5/p25 (human, recombinant, expressed in bacteria) was assayed with 0.8 μg/μL of histone H1 as substrate; CDK9/CyclinT (human, recombinant, expressed by baculovirus in Sf9 insect cells) were assayed with 0.27 μg/μL of the following peptide: […], as substrate; CK1ε (human, recombinant, expressed by baculovirus in Sf9 insect cells) was assayed with 0.022 μg/μL of the following peptide: […]pAYSITA (“Sp” stands for phosphorylated serine) as CK1-specific substrate; GSK3β (human, recombinant, expressed by baculovirus in Sf9 insect cells) were assayed with 0.010 μg/μL of GS-1 peptide, a GSK-3-selective substrate ([…]pEDEEE); Haspin-kd (human, kinase domain, amino acids 470–798, recombinant, expressed in bacteria) was assayed with 0.007 μg/μL of histone H3 (1–21) peptide ([…]) as substrate; Pim-1 (human proto-oncogene, recombinant, expressed in bacteria) was assayed with 0.8 μg/μL of histone H1 as substrate; MmCLK1 (from Mus musculus, recombinant, expressed in bacteria) was assayed with 0.027 μg/μL of the following peptide: […] as substrate; RnDYRK1A-kd (Rattus norvegicus, amino acids 1–499 including the kinase domain, recombinant, expressed in bacteria, DNA vector kindly provided by Dr. W. Becker, Aachen, Germany) was assayed with 0.033 μg/μL of the following peptide: […] as substrate.
A general note: ADP-Glo turns the ADP formed in a reaction into a luminescent signal.
As for `O=[N+]([O-])c1c2ccncc2cc2cn[nH]c12` [1a’], the remaining activity at 1 µM amounted to 90%.

`Cn1ncc2cc3cnccc3c([N+](=O)[O-])c21` [Compound 1b, 1-Methyl-9-nitro-1H-pyrazolo[3,4-g]isoquinoline]: the remaining activity at 1 µM was 100%.

Still in this assay, the particulars now being: 10 μM compound, 10 μM ATP, duplicate; read-out: PIM1 % residual activity at 10 μM.
Regarding `O=[N+]([O-])c1c2ccncc2cc2cn[nH]c12` [1a’], the remaining activity at 10 µM was 85%.

Turning to `Cn1ncc2cc3cnccc3c([N+](=O)[O-])c21` [Compound 1b, 1-Methyl-9-nitro-1H-pyrazolo[3,4-g]isoquinoline], the remaining activity at 10 µM was 54%.

Another assay deals with T2, MmCLK1 (Mus musculus, UniProt P22518).
T2 construct: host or cells: bacteria
T2 sequence (P22518 whole entry): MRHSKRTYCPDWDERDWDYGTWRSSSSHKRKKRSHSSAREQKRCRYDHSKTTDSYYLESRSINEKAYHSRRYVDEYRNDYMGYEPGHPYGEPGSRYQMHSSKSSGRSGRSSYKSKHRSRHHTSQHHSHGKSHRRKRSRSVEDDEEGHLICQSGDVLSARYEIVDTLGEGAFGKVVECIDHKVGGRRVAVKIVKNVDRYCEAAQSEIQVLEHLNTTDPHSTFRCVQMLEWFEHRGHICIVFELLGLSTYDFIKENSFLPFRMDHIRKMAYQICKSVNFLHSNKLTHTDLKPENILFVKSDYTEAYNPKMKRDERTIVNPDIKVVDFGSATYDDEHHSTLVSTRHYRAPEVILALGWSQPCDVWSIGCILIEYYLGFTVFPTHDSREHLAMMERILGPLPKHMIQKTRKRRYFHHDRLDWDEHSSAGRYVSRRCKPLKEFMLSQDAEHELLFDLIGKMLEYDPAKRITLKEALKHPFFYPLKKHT
Description: ADP-Glo kinase inhibition assay, CLK1. Particulars: 10 μM ATP, duplicate; read-out: CLK1 IC50. It is filed as biochemical. As to the method:
as §1, §2
By IC50 is commonly meant the concentration at which inhibition is half-maximal. For the compound `Cn1ncc2cc3cnccc3c([N+](=O)[O-])c21` [Compound 1b, 1-Methyl-9-nitro-1H-pyrazolo[3,4-g]isoquinoline], the 50% inhibitory concentration (IC50) turned out to be 71 nM.

Staying with this assay, now noted: assumed on the basis of % of inhibition at 1 μM (less than 50%); read-out: CLK1 IC50 (assumed).
Consider `O=[N+]([O-])c1c2ccncc2cc2cn[nH]c12` [1a’], for which the half-inhibitory concentration (IC50) is greater than 1000 nM.

The same assay, now with this note: read-out: CLK1 % residual activity at 1 μM.
Consider `O=[N+]([O-])c1c2ccncc2cc2cn[nH]c12` [1a’], for which the remaining activity at 1 µM was 90%.

In the case of `Cn1ncc2cc3cnccc3c([N+](=O)[O-])c21` [Compound 1b, 1-Methyl-9-nitro-1H-pyrazolo[3,4-g]isoquinoline], the remaining activity at 1 µM was found to be 42%.

The same assay, now with this note: read-out: CLK1 % residual activity at 10 μM.
Regarding `O=[N+]([O-])c1c2ccncc2cc2cn[nH]c12` [1a’], the remaining activity at 10 µM was 30%.

`Cn1ncc2cc3cnccc3c([N+](=O)[O-])c21` [Compound 1b, 1-Methyl-9-nitro-1H-pyrazolo[3,4-g]isoquinoline]: the remaining activity at 10 µM stood at 10%.

The next assay has as its target T3, RnDYRK1A-kd (Rattus norvegicus, UniProt Q63470).
T3 construct: RnDYRK1A-kd (Rattus norvegicus, amino acids 1–499 including the kinase domain, recombinant, expressed in bacteria); made in house; host or cells: bacteria
Briefly: ADP-Glo kinase inhibition assay, DYRK1A. It is filed as biochemical. Particulars: 10 μM ATP, duplicate; read-out: DYRK1A IC50. As to the method: as §1, §2
As to `Cn1ncc2cc3cnccc3c([N+](=O)[O-])c21` [Compound 1b, 1-Methyl-9-nitro-1H-pyrazolo[3,4-g]isoquinoline], the half-maximal inhibitory concentration (IC50) was 681 nM.

The same assay, now with this note: assumed on the basis of % of inhibition at 1 μM (less than 50%); read-out: DYRK1A IC50 (assumed).
Consider `O=[N+]([O-])c1c2ccncc2cc2cn[nH]c12` [1a’], for which the concentration for half-maximal inhibition (IC50) was greater than 1000 nM.

Still in this assay, the particulars now being: read-out: DYRK1A % residual activity at 1 μM.
Regarding `O=[N+]([O-])c1c2ccncc2cc2cn[nH]c12` [1a’], the remaining activity at 1 µM came to 68%.

Take `Cn1ncc2cc3cnccc3c([N+](=O)[O-])c21` [Compound 1b, 1-Methyl-9-nitro-1H-pyrazolo[3,4-g]isoquinoline]: the remaining activity at 1 µM came to 41%.

Staying with this assay, now noted: read-out: DYRK1A % residual activity at 10 μM.
With `O=[N+]([O-])c1c2ccncc2cc2cn[nH]c12` [1a’], the remaining activity at 10 µM amounted to 25%.

Regarding `Cn1ncc2cc3cnccc3c([N+](=O)[O-])c21` [Compound 1b, 1-Methyl-9-nitro-1H-pyrazolo[3,4-g]isoquinoline], the remaining activity at 10 µM is 11%.

The target of another assay is T4, GSK3β (Homo sapiens, UniProt P49841).
T4 construct: host or cells: Sf9 insect cells (baculovirus)
T4 sequence (P49841 whole entry): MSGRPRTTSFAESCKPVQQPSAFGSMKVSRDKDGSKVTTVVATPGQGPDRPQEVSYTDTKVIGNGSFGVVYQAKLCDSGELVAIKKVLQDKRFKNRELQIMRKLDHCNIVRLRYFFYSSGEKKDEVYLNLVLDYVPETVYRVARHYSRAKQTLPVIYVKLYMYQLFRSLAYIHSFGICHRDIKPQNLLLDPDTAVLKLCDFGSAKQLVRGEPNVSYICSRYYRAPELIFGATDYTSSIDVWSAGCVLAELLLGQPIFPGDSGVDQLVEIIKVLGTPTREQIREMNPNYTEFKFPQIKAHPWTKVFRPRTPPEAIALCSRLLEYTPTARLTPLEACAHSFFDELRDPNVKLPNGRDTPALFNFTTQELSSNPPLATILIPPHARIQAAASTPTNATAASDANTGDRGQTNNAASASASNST
Description: ADP-Glo kinase inhibition assay, GSK3β. It is filed as biochemical. Particulars: read-out: GSK3 % residual activity at 1 μM. As to the method: as §1, §2
With `O=[N+]([O-])c1c2ccncc2cc2cn[nH]c12` [1a’], the remaining activity at 1 µM is 99%.

Turning to `Cn1ncc2cc3cnccc3c([N+](=O)[O-])c21` [Compound 1b, 1-Methyl-9-nitro-1H-pyrazolo[3,4-g]isoquinoline], the remaining activity at 1 µM was found to be 73%.

The assay is the same for the next values; noted with them: read-out: GSK3 % residual activity at 10 μM.
Turning to `O=[N+]([O-])c1c2ccncc2cc2cn[nH]c12` [1a’], the remaining activity at 10 µM was 50%.

With `Cn1ncc2cc3cnccc3c([N+](=O)[O-])c21` [Compound 1b, 1-Methyl-9-nitro-1H-pyrazolo[3,4-g]isoquinoline], the remaining activity at 10 µM was 33%.

The target in another assay is T5, Haspin-kd (human, kinase domain, amino acids 470–798) (Homo sapiens, UniProt Q8TF76).
T5 construct: Haspin-kd (human, kinase domain, amino acids 470–798, recombinant, expressed in bacteria); host or cells: bacteria
T5 sequence (Q8TF76 470-798): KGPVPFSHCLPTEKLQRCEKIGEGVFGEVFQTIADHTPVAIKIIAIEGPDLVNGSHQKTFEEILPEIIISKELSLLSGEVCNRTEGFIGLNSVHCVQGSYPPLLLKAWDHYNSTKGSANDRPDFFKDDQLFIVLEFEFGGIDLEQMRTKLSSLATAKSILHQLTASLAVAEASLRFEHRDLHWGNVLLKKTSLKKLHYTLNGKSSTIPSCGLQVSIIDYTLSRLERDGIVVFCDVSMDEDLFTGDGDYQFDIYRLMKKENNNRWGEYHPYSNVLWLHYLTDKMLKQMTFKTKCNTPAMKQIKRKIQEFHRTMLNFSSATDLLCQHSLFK
Description: ADP-Glo kinase inhibition assay, Haspin. It is filed as biochemical. The following applies: 10 μM ATP, duplicate. As to the method: as §1
`O=[N+]([O-])c1c2ccncc2cc2cn[nH]c12` [1a’] yielded an IC50 of 154 nM.

`Cn1ncc2cc3cnccc3c([N+](=O)[O-])c21` [Compound 1b, 1-Methyl-9-nitro-1H-pyrazolo[3,4-g]isoquinoline] had a 50% inhibitory concentration (IC50) of 57 nM.

Still in this assay, the particulars now being: read-out: Haspin % residual activity at 1 μM.
For `O=[N+]([O-])c1c2ccncc2cc2cn[nH]c12` [1a’], the remaining activity at 1 µM was 32%.

Consider `Cn1ncc2cc3cnccc3c([N+](=O)[O-])c21` [Compound 1b, 1-Methyl-9-nitro-1H-pyrazolo[3,4-g]isoquinoline], for which the remaining activity at 1 µM was determined as 26%.

The assay is the same for the next values; noted with them: read-out: Haspin % residual activity at 10 μM.
As for `O=[N+]([O-])c1c2ccncc2cc2cn[nH]c12` [1a’], the remaining activity at 10 µM came to 23%.

In the case of `Cn1ncc2cc3cnccc3c([N+](=O)[O-])c21` [Compound 1b, 1-Methyl-9-nitro-1H-pyrazolo[3,4-g]isoquinoline], the remaining activity at 10 µM was 9%.

A further assay deals with T6, CDK5/p25 (Homo sapiens, UniProt Q00535).
T6 construct: host or cells: bacteria
T6 sequence (Q00535 whole entry): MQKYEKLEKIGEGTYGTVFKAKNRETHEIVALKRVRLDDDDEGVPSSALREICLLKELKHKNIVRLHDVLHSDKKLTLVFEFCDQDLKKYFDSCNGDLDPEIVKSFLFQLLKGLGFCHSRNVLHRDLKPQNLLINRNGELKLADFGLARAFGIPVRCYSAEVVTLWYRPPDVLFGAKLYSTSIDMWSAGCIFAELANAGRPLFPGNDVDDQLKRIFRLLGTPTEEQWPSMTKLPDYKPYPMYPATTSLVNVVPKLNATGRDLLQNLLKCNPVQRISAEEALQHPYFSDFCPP
T6 sequence (Q15078 99-307, further chain): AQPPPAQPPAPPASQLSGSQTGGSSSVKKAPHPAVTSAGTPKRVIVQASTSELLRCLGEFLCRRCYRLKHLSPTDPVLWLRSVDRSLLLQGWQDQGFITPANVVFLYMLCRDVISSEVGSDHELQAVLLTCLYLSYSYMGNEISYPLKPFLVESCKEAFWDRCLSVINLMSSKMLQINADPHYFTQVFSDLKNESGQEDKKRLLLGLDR
Description: ADP-Glo kinase inhibition assay, CDK5/p25. Type of assay: biochemical. The following applies: read-out: CDK5 % residual activity at 1 μM. The procedure: as §1, §2
With `O=[N+]([O-])c1c2ccncc2cc2cn[nH]c12` [1a’], the remaining activity at 1 µM was 91%.

With `Cn1ncc2cc3cnccc3c([N+](=O)[O-])c21` [Compound 1b, 1-Methyl-9-nitro-1H-pyrazolo[3,4-g]isoquinoline], the remaining activity at 1 µM came to 95%.

Staying with this assay, now noted: read-out: CDK5 % residual activity at 10 μM.
On to `O=[N+]([O-])c1c2ccncc2cc2cn[nH]c12` [1a’], for which the remaining activity at 10 µM is 62%.

On to `Cn1ncc2cc3cnccc3c([N+](=O)[O-])c21` [Compound 1b, 1-Methyl-9-nitro-1H-pyrazolo[3,4-g]isoquinoline], for which the remaining activity at 10 µM turned out to be 43%.

The target of a further assay is T7, CDK9/CyclinT (Homo sapiens, UniProt P50750).
T7 construct: host or cells: Sf9 insect cells (baculovirus)
T7 sequence (O60563 whole entry): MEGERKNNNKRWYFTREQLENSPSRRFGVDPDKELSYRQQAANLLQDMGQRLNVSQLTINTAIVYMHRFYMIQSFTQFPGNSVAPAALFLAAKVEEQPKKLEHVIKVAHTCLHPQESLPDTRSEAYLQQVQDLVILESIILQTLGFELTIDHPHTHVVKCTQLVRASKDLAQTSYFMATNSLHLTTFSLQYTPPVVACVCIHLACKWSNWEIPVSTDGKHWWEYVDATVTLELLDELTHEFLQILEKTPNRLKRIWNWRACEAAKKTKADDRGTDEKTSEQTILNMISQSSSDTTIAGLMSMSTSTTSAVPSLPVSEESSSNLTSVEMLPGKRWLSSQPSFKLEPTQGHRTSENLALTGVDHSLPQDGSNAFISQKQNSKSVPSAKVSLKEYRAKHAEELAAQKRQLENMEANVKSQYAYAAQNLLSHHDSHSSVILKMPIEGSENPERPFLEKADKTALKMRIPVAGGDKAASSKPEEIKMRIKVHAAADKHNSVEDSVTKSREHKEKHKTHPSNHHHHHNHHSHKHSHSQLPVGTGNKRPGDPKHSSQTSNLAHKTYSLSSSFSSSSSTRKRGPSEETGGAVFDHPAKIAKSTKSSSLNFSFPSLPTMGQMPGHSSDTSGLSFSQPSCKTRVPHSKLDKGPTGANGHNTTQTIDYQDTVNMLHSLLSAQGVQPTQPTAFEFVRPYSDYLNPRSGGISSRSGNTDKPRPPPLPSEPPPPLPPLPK
T7 sequence (P50750 whole entry): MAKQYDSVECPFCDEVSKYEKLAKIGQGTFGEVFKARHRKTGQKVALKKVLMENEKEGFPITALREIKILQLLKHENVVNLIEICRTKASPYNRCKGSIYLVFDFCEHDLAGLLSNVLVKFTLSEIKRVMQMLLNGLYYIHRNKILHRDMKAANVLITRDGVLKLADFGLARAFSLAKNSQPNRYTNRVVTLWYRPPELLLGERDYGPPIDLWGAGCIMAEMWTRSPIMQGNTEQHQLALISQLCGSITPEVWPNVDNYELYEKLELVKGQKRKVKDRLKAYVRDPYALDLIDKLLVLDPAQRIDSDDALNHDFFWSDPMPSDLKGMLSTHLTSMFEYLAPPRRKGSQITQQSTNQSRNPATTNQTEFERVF
Briefly: ADP-Glo kinase inhibition assay, CDK9/CyclinT. It is filed as biochemical. The following applies: read-out: CDK9 % residual activity at 1 μM. As to the method: as §1, §2
As to `O=[N+]([O-])c1c2ccncc2cc2cn[nH]c12` [1a’], the remaining activity at 1 µM stood at 86%.

Regarding `Cn1ncc2cc3cnccc3c([N+](=O)[O-])c21` [Compound 1b, 1-Methyl-9-nitro-1H-pyrazolo[3,4-g]isoquinoline], the remaining activity at 1 µM amounted to 57%.

The same assay, now with this note: read-out: CDK9 % residual activity at 10 μM.
Consider `O=[N+]([O-])c1c2ccncc2cc2cn[nH]c12` [1a’], for which the remaining activity at 10 µM came to 48%.

For the compound `Cn1ncc2cc3cnccc3c([N+](=O)[O-])c21` [Compound 1b, 1-Methyl-9-nitro-1H-pyrazolo[3,4-g]isoquinoline], the remaining activity at 10 µM stood at 35%.

For a further assay, the target named is T8, CK1ε (Homo sapiens, UniProt P49674).
T8 construct: host or cells: Sf9 insect cells (baculovirus)
T8 sequence (P49674 whole entry): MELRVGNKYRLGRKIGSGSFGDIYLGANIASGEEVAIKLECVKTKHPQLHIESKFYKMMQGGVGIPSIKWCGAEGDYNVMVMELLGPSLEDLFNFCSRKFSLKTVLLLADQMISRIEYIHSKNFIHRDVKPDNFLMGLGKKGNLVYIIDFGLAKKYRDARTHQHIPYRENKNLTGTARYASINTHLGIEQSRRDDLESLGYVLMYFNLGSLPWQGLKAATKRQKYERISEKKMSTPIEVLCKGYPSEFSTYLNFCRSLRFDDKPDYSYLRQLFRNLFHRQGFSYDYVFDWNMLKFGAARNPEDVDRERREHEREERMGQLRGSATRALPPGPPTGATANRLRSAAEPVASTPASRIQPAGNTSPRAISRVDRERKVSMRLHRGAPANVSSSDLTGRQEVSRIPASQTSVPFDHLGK
Briefly: ADP-Glo kinase inhibition assay, CK1ε. Type of assay: biochemical. The following applies: 1 μM compound, 10 μM ATP, duplicate; read-out: CK1 % residual activity at 1 μM. The procedure:
as §1, §2
`O=[N+]([O-])c1c2ccncc2cc2cn[nH]c12` [1a’]: the remaining activity at 1 µM was 100%.

Turning to `Cn1ncc2cc3cnccc3c([N+](=O)[O-])c21` [Compound 1b, 1-Methyl-9-nitro-1H-pyrazolo[3,4-g]isoquinoline], the remaining activity at 1 µM turned out to be 88%.

Staying with this assay, now noted: 10 μM compound, 10 μM ATP, duplicate; read-out: CK1 % residual activity at 10 μM.
On to `O=[N+]([O-])c1c2ccncc2cc2cn[nH]c12` [1a’], for which the remaining activity at 10 µM came to 64%.

Take `Cn1ncc2cc3cnccc3c([N+](=O)[O-])c21` [Compound 1b, 1-Methyl-9-nitro-1H-pyrazolo[3,4-g]isoquinoline]: the remaining activity at 10 µM was found to be 53%.
